Data published in ChEMBL document CHEMBL2440100, “Therapeutic potential of the peptide leucine arginine as a new nonplant bowman-birk-like serine protease inhibitor” (J Med Chem, 2013).
Active and inactive are the calls of the source. Where a SMILES comes first, the peptide text is derived from it. Bridges are numbered along the chain shown (N, C = ends).

Tests used:
[1] = species on record: Mus musculus; test: Antiasthmatic activity in OVA-immunized BALB/c mouse acute asthma model assessed as reduction of methacholine-induced lung resistance at 100 nM treated intranasally on days 15, 16, 22, and 23 at 30 mins before OVA challenge; format: functional, organism-based
[2] = species on record: Mus musculus; test: Antiasthmatic activity in OVA-immunized BALB/c mouse chronic asthma model assessed as inhibition of tryptase-like protease activity in BAL fluid using tosyl-gly […]-lys-pNA as substrate at 100 nM after 1 hr relative to control; format: functional
[3] = system: Splenocyte; test: Antiasthmatic activity in splenocytes isolated from 25 days OVA-immunized BALB/c mouse acute asthma model assessed as reduction of IL-13 and IL-5 production at 100 nM measured after 3 days re-stimulation by ELISA; format: functional, cell-based
[4] = species on record: Mus musculus; test: Antiasthmatic activity in OVA-immunized BALB/c mouse chronic asthma model assessed as decrease in number of eosinophils in BAL fluid at 100 nM treated intranasally on days 15, 16, 22, and 23 at 30 mins before OVA challenge measured on day 71; format: functional, organism-based
[5] = species on record: Mus musculus; test: Antiasthmatic activity in OVA-immunized BALB/c mouse chronic asthma model assessed as reduction of collagen and old fibrin at 100 nM treated intranasally on days 15, 16, 22, and 23 at 30 mins before OVA challenge measured on day 71 by martius scarlet blue-staining; format: functional, organism-based
[6] = species on record: Mus musculus; test: Antiasthmatic activity in OVA-immunized BALB/c mouse chronic asthma model assessed as inhibition of tryptase-like protease activity in BAL fluid using tosyl-gly […]-lys-pNA as substrate after 1 hr; format: functional, organism-based
[7] = species on record: Mus musculus; test: Antiasthmatic activity in OVA-immunized BALB/c mouse chronic asthma model assessed as reduction of methacholine-induced airway hyperreactivity at 100 nM treated intranasally on days 15, 16, 22, and 23 at 30 mins before OVA challenge measured on day 71; format: functional, organism-based
[8] = species on record: Mus musculus; test: Antiasthmatic activity in OVA-immunized BALB/c mouse chronic asthma model assessed as reduction of airway inflammation at 100 nM treated intranasally on days 15, 16, 22, and 23 at 30 mins before OVA challenge by hematoxylin and eosin staining measured on day 71; format: functional, organism-based
[9] = species on record: Mus musculus; test: Antiasthmatic activity in OVA-immunized BALB/c mouse chronic asthma model assessed as reduction of decrease in smooth muscle area at 100 nM treated intranasally on days 15, 16, 22, and 23 at 30 mins before OVA challenge measured on day 71 by alpha-SMA-staining; format: functional, organism-based; details: Muscle tissue
[10] = species on record: Mus musculus; test: Antiasthmatic activity in OVA-immunized BALB/c mouse chronic asthma model assessed as inhibition of airway inflammation at 100 nM treated intranasally on days 15, 16, 22, and 23 at 30 mins before OVA challenge measured on day 71; format: functional, organism-based
[11] = species on record: Mus musculus; test: Antiasthmatic activity in OVA-immunized BALB/c mouse chronic asthma model assessed as reduction of IgE level in serum at 100 nM treated intranasally on days 15, 16, 22, and 23 at 30 mins before OVA challenge measured on day 71; format: functional, organism-based
[12] = species on record: Mus musculus; test: Antiasthmatic activity in OVA-immunized BALB/c mouse acute asthma model assessed as reduction of airway inflammation at 100 nM treated intranasally on days 15, 16, 22, and 23 at 30 mins before OVA challenge by hematoxylin and eosin staining; format: functional, organism-based
[13] = species on record: Mus musculus; test: Antiasthmatic activity in OVA-immunized BALB/c mouse chronic asthma model assessed as reduction of total lung collagen level at 100 nM treated intranasally on days 15, 16, 22, and 23 at 30 mins before OVA challenge measured on day 71 by MSB-staining; format: functional, organism-based
[14] = species on record: Mus musculus; test: Antiasthmatic activity in OVA-immunized BALB/c mouse chronic asthma model assessed as reduction of area of proliferating smooth muscle cell at 100 nM treated intranasally on days 15, 16, 22, and 23 at 30 mins before OVA challenge measured on day 71 by PCNA+-staining; format: functional, organism-based
[15] = species on record: Mus musculus; test: Antiasthmatic activity in OVA-immunized BALB/c mouse chronic asthma model assessed as inhibition of airway remodeling at 100 nM treated intranasally on days 15, 16, 22, and 23 at 30 mins before OVA challenge measured on day 71; format: functional, organism-based
[16] = species on record: Mus musculus; test: Antiasthmatic activity in OVA-immunized BALB/c mouse acute asthma model assessed as decrease in number of eosinophils in BAL fluid at 100 nM treated intranasally on days 15, 16, 22, and 23 at 30 mins before OVA challenge; format: functional, organism-based
[17] = species on record: Mus musculus; test: Antiasthmatic activity in lymphnode cells isolated from 25 days OVA-immunized BALB/c mouse acute asthma model assessed as reduction of IL-13 and IL-5 production at 100 nM measured after 3 days re-stimulation by ELISA; format: functional, cell-based
[18] = species on record: Mus musculus; test: Antiasthmatic activity in OVA-immunized BALB/c mouse acute asthma model assessed as reduction of IgG2a level in serum at 100 nM treated intranasally on days 15, 16, 22, and 23 at 30 mins before OVA challenge; format: functional, organism-based
[19] = species on record: Mus musculus; test: Antiasthmatic activity in OVA-immunized BALB/c mouse chronic asthma model assessed as plasma histamine release at 0.1 uM treated intranasally after 5 mins by immunoassay; format: functional, organism-based
[20] = species on record: Mus musculus; test: Antiasthmatic activity in OVA-immunized BALB/c mouse acute asthma model assessed as reduction of mucus production in PAS-stained lung section at 100 nM treated intranasally on days 15, 16, 22, and 23 at 30 mins before OVA challenge; format: functional, organism-based
[21] = species on record: Mus musculus; test: Antiasthmatic activity in OVA-immunized BALB/c mouse chronic asthma model assessed as reduction of mMCP-1 level in serum at 100 nM treated intranasally at 30 mins before OVA challenge measured after 30 mins by ELISA; format: functional, organism-based
[22] = species on record: Mus musculus; test: Antiasthmatic activity in OVA-immunized BALB/c mouse chronic asthma model assessed as reduction of 8-isoprostane level in serum at 10 uM treated intranasally by immunoassay; format: functional, organism-based
[23] = species on record: Mus musculus; test: Antiasthmatic activity in OVA-immunized BALB/c mouse acute asthma model assessed as reduction of IgE level in serum at 100 nM treated intranasally on days 15, 16, 22, and 23 at 30 mins before OVA challenge; format: functional, organism-based
[24] = Inhibition of bovine trypsin using benzoyl-L-arginine p-nitroanilide as substrate after 5 to 60 mins; set-up: species or system Bos taurus
[25] = species on record: Mus musculus; test: Antiasthmatic activity in OVA-immunized BALB/c mouse acute asthma model assessed as reduction of methacholine-induced airway hyperreactivity at 100 nM treated intranasally on days 15, 16, 22, and 23 at 30 mins before OVA challenge; format: functional, organism-based
[26] = system: Splenocyte; test: Antiasthmatic activity in splenocytes isolated from 25 days OVA-immunized BALB/c mouse acute asthma model assessed as reduction of IFN-gamma production at 100 nM measured after 3 days re-stimulation by ELISA; format: functional, cell-based
[27] = species on record: Mus musculus; test: Antiasthmatic activity in lymphnode cells isolated from 25 days OVA-immunized BALB/c mouse acute asthma model assessed as reduction of IFN-gamma production at 100 nM measured after 3 days re-stimulation by ELISA; format: functional, cell-based
[28] = species on record: Mus musculus; test: Antiasthmatic activity in OVA-immunized BALB/c mouse chronic asthma model assessed as plasma histamine release at 10 uM treated intranasally after 5 mins by immunoassay; format: functional, organism-based

CC[C@H](C)[C@@H]1NC(=O)[C@@H]2CCCN2C(=O)[C@@H]2CCCN2C(=O)[C@H]([C@@H](C)CC)NC(=O)[C@H](CO)NC(=O)[C@H](CCCCN)NC(=O)[C@H]([C@@H](C)O)NC(=O)[C@@H]2CSSC[C@H](NC1=O)C(=O)N[C@@H](Cc1ccccc1)C(=O)N1CCC[C@H]1C(=O)N[C@@H](CC(=O)O)C(=O)NCC(=O)N[C@@H](CCCNC(=N)N)C(=O)N2
8 nM: Ki [24]
60%: inhibition (INH) [2]
inactive: Activity [18] | Activity [19] | Activity [22]
active: Activity [1] | Activity [3] | Activity [4] | Activity [5] | inhibition [6] Dose-dependent effect | Activity [7] | Activity [8] | Activity [9] | Activity [10] | Activity [11] | Activity [12] | Activity [13] | Activity [14] | Activity [15] | Activity [16] | Activity [17] | Activity [20] | Activity [21] | Activity [23] | Activity [25]

CC(C)C[C@H](N)C(=O)N[C@H](C(=O)N[C@@H](CCCNC(=N)N)C(=O)NCC(=O)N[C@H]1CSSC[C@@H](C(=O)N[C@@H](Cc2ccccc2)C(=O)N[C@H](C(=O)N[C@@H](CCCNC(=N)N)C(=O)O)C(C)C)NC(=O)[C@@H]2CCCN2C(=O)[C@H](CCCCN)NC(=O)[C@@H]2CCCN2C(=O)[C@@H]2CCCN2C(=O)[C@H](Cc2ccc(O)cc2)NC(=O)[C@H](CO)NC(=O)[C@H](CCCCN)NC(=O)[C@H]([C@@H](C)O)NC(=O)[C@H](Cc2c[nH]c3ccccc23)NC1=O)C(C)C (H-LVRGCWTKSYPPKPCFVR-OH; disulfide 5-15)
60%: inhibition (INH) [2]
inactive: Activity [27] | Activity [18] | Activity [19]
110 nM: Ki [24]
active: Activity [1] | Activity [3] | Activity [4] | Activity [5] | inhibition [6] Dose-dependent effect | Activity [7] | Activity [26] | Activity [8] | Activity [9] | Activity [10] | Activity [11] | Activity [12] | Activity [13] | Activity [14] | Activity [15] | Activity [16] | Activity [17] | Activity [28] | Activity [20] | Activity [21] | Activity [22] | Activity [23] | Activity [25]
